From PubChem BioAssay AID248 (DTP/NCI, 2004)
Values joined by “and” are separate entries in the source; they are usually repeats but may differ in a detail not shown here. Identical values can stand only once. Inconclusive results and toxic doses are left out. Rule as the data show it: active = T/C of 150% or more; inactive = T/C below 125%.

Tested on: L1210 leukemia ip in BDF1 mice, survival T/C
Assay: NCI In Vivo Anticancer Drug Screen. Data for tumor model L1210 Leukemia (intraperitoneal) in B6D2F1 (BDF1) mice
Conditions: higher = longer survival
Outline: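 Ratio derived from survival: compound-dosed mice over vehicle-dosed mice, all bearing a transplantable tumor.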

Measured: T/C

COc1cccc2c1C(=O)c1c(O)c3c(c(O)c1C2=O)C[C@@](O)(C(C)=O)C[C@@H]3OC1CC(N)C(O)C(C)O1 (stereo partly drawn)
inactive: endpoint: mean survival time, dose: 0.05 mg/kg/injection, schedule: Q01DX009 (ip), vehicle: saline 105 % of control | endpoint: mean survival time, dose: 0.1 mg/kg/injection, schedule: Q01DX015 (ip), vehicle: water 104 % of control | endpoint: mean survival time, dose: 0.1 mg/kg/injection, schedule: Q02DX008 (ip), vehicle: water 97 % of control | endpoint: mean survival time, dose: 0.14 mg/kg/injection, schedule: Q04DX002 (ip), vehicle: saline 104 % of control and 105 % of control | endpoint: mean survival time, dose: 0.14 mg/kg/injection, schedule: Q## X004 (ip), vehicle: water 103 % of control | endpoint: mean survival time, dose: 0.15 mg/kg/injection, schedule: Q02DX008 (ip), vehicle: water 106 % of control | endpoint: mean survival time, dose: 0.25 mg/kg/injection, schedule: Q04DX003 (ip), vehicle: water 104 % of control | endpoint: mean survival time, dose: 0.27 mg/kg/injection, schedule: Q04DX002 (ip), vehicle: saline 94 % of control | endpoint: mean survival time, dose: 0.54 mg/kg/injection, schedule: Q04DX002 (ip), vehicle: saline 100 % of control | endpoint: mean survival time, dose: 1.0 mg/kg/injection, schedule: Q03HX024 (ip), vehicle: water 103 % of control | endpoint: mean survival time, dose: 1.0 mg/kg/injection, schedule: Q04DX005 (ip), vehicle: saline 105 % of control | endpoint: mean survival time, dose: 1.3 mg/kg/injection, schedule: Q02DX005 (ip), vehicle: saline 97 % of control | endpoint: mean survival time, dose: 1.8 mg/kg/injection, schedule: Q## X032 (ip), vehicle: water 95 % of control | endpoint: mean survival time, dose: 2.0 mg/kg/injection, schedule: Q02DX005 (ip), vehicle: saline 102 % of control | endpoint: mean survival time, dose: 2.0 mg/kg/injection, schedule: Q02DX009 (ip), vehicle: saline 102 % of control | endpoint: mean survival time, dose: 2.0 mg/kg/injection, schedule: Q03HX024 (ip), vehicle: water 100 % of control | endpoint: mean survival time, dose: 2.7 mg/kg/injection, schedule: Q## X032 (ip), vehicle: water 100 % of control | endpoint: mean survival time, dose: 3.33 mg/kg/injection, schedule: Q01DX Z (ip), vehicle: saline 105 % of control | endpoint: mean survival time, dose: 3.95 mg/kg/injection, schedule: Q01DX Z (oral), vehicle: saline 101 % of control | endpoint: mean survival time, dose: 4.0 mg/kg/injection, schedule: Q01DX003 (ip), vehicle: saline 103 % of control | endpoint: mean survival time, dose: 4.0 mg/kg/injection, schedule: Q01DX005 (ip), vehicle: saline 102 % of control | endpoint: mean survival time, dose: 4.0 mg/kg/injection, schedule: Q01DX010 (ip), vehicle: saline 92 % of control and 103 % of control | endpoint: mean survival time, dose: 4.0 mg/kg/injection, schedule: Q01DX014 (ip), vehicle: saline 100 % of control | endpoint: mean survival time, dose: 4.0 mg/kg/injection, schedule: Q04DX005 (ip), vehicle: saline 106 % of control | endpoint: mean survival time, dose: 4.0 mg/kg/injection, schedule: Q06HX004 (ip), vehicle: water 102 % of control | endpoint: mean survival time, dose: 4.0 mg/kg/injection, schedule: Q## X Z (ip), vehicle: water 104 % of control | endpoint: mean survival time, dose: 5.0 mg/kg/injection, schedule: Q01DX009 (oral), vehicle: saline 104 % of control | endpoint: mean survival time, dose: 5.0 mg/kg/injection, schedule: Q01DX Z (ip), vehicle: saline 95 % of control | endpoint: mean survival time, dose: 5.92 mg/kg/injection, schedule: Q01DX Z (oral), vehicle: saline 106 % of control | endpoint: mean survival time, dose: 6.0 mg/kg/injection, schedule: Q01DX014 (ip), vehicle: saline 105 % of control | endpoint: mean survival time, dose: 6.25 mg/kg/injection, schedule: Q01DX009 (ip), vehicle: saline 95 % of control | endpoint: mean survival time, dose: 8.0 mg/kg/injection, schedule: Q01DX001 (ip), vehicle: water 98 % of control | endpoint: mean survival time, dose: 8.0 mg/kg/injection, schedule: Q01DX015 (ip), vehicle: saline 103 % of control | endpoint: mean survival time, dose: 8.88 mg/kg/injection, schedule: Q01DX001 (ip), vehicle: saline 105 % of control | endpoint: mean survival time, dose: 8.88 mg/kg/injection, schedule: Q01DX Z (oral), vehicle: saline 100 % of control | endpoint: mean survival time, dose: 9.0 mg/kg/injection, schedule: Q## X032 (ip), vehicle: water 104 % of control | endpoint: mean survival time, dose: 10.0 mg/kg/injection, schedule: Q04DX003 (ip), vehicle: water 104 % of control | endpoint: mean survival time, dose: 12.0 mg/kg/injection, schedule: Q02DX008 (ip), vehicle: saline 102 % of control | endpoint: mean survival time, dose: 12.5 mg/kg/injection, schedule: Q01DX001 (oral), vehicle: water 103 % of control | endpoint: mean survival time, dose: 13.0 mg/kg/injection, schedule: Q## X004 (ip), vehicle: saline 96 % of control | endpoint: mean survival time, dose: 13.3 mg/kg/injection, schedule: Q01DX001 (ip), vehicle: saline 94 % of control and 95 % of control | endpoint: mean survival time, dose: 13.3 mg/kg/injection, schedule: Q01DX Z (oral), vehicle: saline 98 % of control | endpoint: mean survival time, dose: 13.33 mg/kg/injection, schedule: Q#B X Z (oral), vehicle: water 103 % of control | endpoint: mean survival time, dose: 20.0 mg/kg/injection, schedule: Q01DX001 (ip), vehicle: water 95 % of control | endpoint: mean survival time, dose: 20.0 mg/kg/injection, schedule: Q01DX Z (oral), vehicle: saline 106 % of control | endpoint: mean survival time, dose: 25.0 mg/kg/injection, schedule: Q01DX001 (oral), vehicle: water 94 % of control | endpoint: mean survival time, dose: 25.0 mg/kg/injection, schedule: Q04DX002 (ip), vehicle: saline 97 % of control | endpoint: mean survival time, dose: 30.0 mg/kg/injection, schedule: Q01DX001 (ip), vehicle: saline 95 % of control | endpoint: mean survival time, dose: 30.0 mg/kg/injection, schedule: Q01DX Z (oral), vehicle: saline 102 % of control | endpoint: mean survival time, dose: 45.0 mg/kg/injection, schedule: Q01DX Z (oral), vehicle: saline 102 % of control | endpoint: mean survival time, dose: 50.0 mg/kg/injection, schedule: Q01DX001 (oral), vehicle: water 97 % of control | endpoint: mean survival time, dose: 80.0 mg/kg/injection, schedule: Q01DX010 (oral), vehicle: saline 103 % of control | endpoint: mean survival time, dose: 80.0 mg/kg/injection, schedule: Q07DX Z (oral), vehicle: water 97 % of control | endpoint: mean survival time, dose: 100.0 mg/kg/injection, schedule: Q01DX001 (oral), vehicle: water 100 % of control | endpoint: mean survival time, dose: 160.0 mg/kg/injection, schedule: Q07DX Z (oral), vehicle: water 101 % of control | endpoint: median survival time, dose: 0.05 mg/kg/injection, schedule: Q01DX001 (ip), vehicle: saline 100 % of control | endpoint: median survival time, dose: 0.2 mg/kg/injection, schedule: Q01DX001 (ip), vehicle: saline 94 % of control and 100 % of control | endpoint: median survival time, dose: 0.28 mg/kg/injection, schedule: Q03HX008 (ip), vehicle: water 105 % of control | endpoint: median survival time, dose: 0.8 mg/kg/injection, schedule: Q01DX001 (ip), vehicle: saline 100 % of control | endpoint: median survival time, dose: 1.75 mg/kg/injection, schedule: Q04DX003 (ip), vehicle: water 94 % of control | endpoint: median survival time, dose: 1.8 mg/kg/injection, schedule: Q01DX005 (ip), vehicle: water 105 % of control | endpoint: median survival time, dose: 2.0 mg/kg/injection, schedule: Q01DX001 (iv), vehicle: water 99 % of control | endpoint: median survival time, dose: 2.0 mg/kg/injection, schedule: Q01DX005 (ip), vehicle: other 106 % of control | endpoint: median survival time, dose: 2.0 mg/kg/injection, schedule: Q03HX008 (ip), vehicle: water 94 % of control | endpoint: median survival time, dose: 2.6 mg/kg/injection, schedule: Q04DX003 (ip), vehicle: water 105 % of control | endpoint: median survival time, dose: 3.0 mg/kg/injection, schedule: Q01DX005 (ip), vehicle: water 100 % of control | endpoint: median survival time, dose: 3.0 mg/kg/injection, schedule: Q04DX003 (sc), vehicle: water 99 % of control and 100 % of control | endpoint: median survival time, dose: 3.9 mg/kg/injection, schedule: Q01DX001 (ip), vehicle: water 100 % of control | endpoint: median survival time, dose: 3.9 mg/kg/injection, schedule: Q04DX003 (ip), vehicle: water 100 % of control | endpoint: median survival time, dose: 4.0 mg/kg/injection, schedule: Q01DX001 (ip), vehicle: saline 106 % of control | endpoint: median survival time, dose: 4.0 mg/kg/injection, schedule: Q01DX001 (iv), vehicle: water 102 % of control | endpoint: median survival time, dose: 5.0 mg/kg/injection, schedule: Q01DX017 (ip), vehicle: water 105 % of control | endpoint: median survival time, dose: 5.0 mg/kg/injection, schedule: Q04DX003 (ip), vehicle: Klucel (hydroxypropylcellulose) (HPC) 105 % of control | endpoint: median survival time, dose: 5.9 mg/kg/injection, schedule: Q01DX001 (ip), vehicle: water 105 % of control | endpoint: median survival time, dose: 5.9 mg/kg/injection, schedule: Q04DX003 (ip), vehicle: water 100 % of control | endpoint: median survival time, dose: 8.0 mg/kg/injection, schedule: Q01DX001 (iv), vehicle: water 102 % of control | endpoint: median survival time, dose: 8.3 mg/kg/injection, schedule: Q04DX003 (ip), vehicle: Klucel (hydroxypropylcellulose) (HPC) 94 % of control and 97 % of control | endpoint: median survival time, dose: 8.9 mg/kg/injection, schedule: Q01DX001 (ip), vehicle: water 94 % of control | endpoint: median survival time, dose: 10.0 mg/kg/injection, schedule: Q01DX001 (ip), vehicle: water 97 % of control and 100 % of control | endpoint: median survival time, dose: 10.0 mg/kg/injection, schedule: Q04DX003 (ip), vehicle: water 100 % of control | endpoint: median survival time, dose: 13.3 mg/kg/injection, schedule: Q01DX001 (ip), vehicle: water 100 % of control | endpoint: median survival time, dose: 25.0 mg/kg/injection, schedule: Q04DX003 (sc), vehicle: water 100 % of control and 102 % of control | endpoint: median survival time, dose: 39.0 mg/kg/injection, schedule: Q04DX003 (sc), vehicle: water 99 % of control and 100 % of control
